Data set [1] has as its target Human acetylcholinesterase (AChE; EC 3.1.1.7) (Homo sapiens, UniProt P22303). The experiment in a line: modified Ellman assay with purified AChE, Lineweaver-Burk kinetics. Format: biochemical. (In general: DTNB colorimetry detects thiols as they appear.)
Substrate in data set [2]: CC(=O)SCC[N+](C)(C)C
As to the kind of experiment: Km from modified Ellman assay, Lineweaver-Burk (enzyme only). Format: biochemical, Homo sapiens. The settings on record: active site (substrate). The text has this:
Km from modified Ellman assay, Lineweaver-Burk (enzyme only) on Human acetylcholinesterase (AChE; EC 3.1.1.7) | The reaction system contained acetylthiocholine (ACth) as the substrate

Like-named read-outs stand apart in the source and are kept apart here.

Data on 3 molecules can be found in article PMC12691779, “Creatine and Taurine as Novel Competitive Inhibitors of Acetylcholinesterase: A Biochemical Basis for Nutritional Modulation of Brain Function” (International Journal of Molecular Sciences, 2025).

As for `CN(CC(=O)O)C(=N)N` [CR, Creatine], the Ki in data set [1] (read-out: Creatine 0.15 mM) amounted to 199 ± 5.21 µM. Consider `NCCS(=O)(=O)O` [TA, Taurine], for which, in data set [1] (read-out: Taurine 0.15 mM), the Ki was 274 ± 5.94 µM.

B1: Human acetylcholinesterase (AChE; EC 3.1.1.7) (Homo sapiens) (protein)
chain: EGREDAELLVTVRGGRLRGIRLKTPGGPVSAFLGIPFAEPPMGPRRFLPPEPKQPWSGVVDATTFQSVCYQYVDTLYPGFEGTEMWNPNRELSEDCLYLNVWTPYPRPTSPTPVLVWIYGGGFYSGASSLDVYDGRFLVQAERTVLVSMNYRVGAFGFLALPGSREAPGNVGLLDQRLALQWVQENVAAFGGDPTSVTLFGESAGAASVGMHLLSPPSRGLFHRAVLQSGAPNGPWATVGMGEARRRATQLAHLVGCPPGGTGGNDTELVACLRTRPAQVLVNHEWHVLPQESVFRFSFVPVVDGDFLSDTPEALINAGDFHGLQVLVGVVKDEGSYFLVYGAPGFSKDNESLISRAEFLAGVRVGVPQVSDLAAEAVVLHYTDWLHPEDPARLREALSDVVGDHNVVCPVAQLAGRLAAQGARVYAYVFEHRASTLSWPLWMGVPHGYEIEFIFGIPLDPSRNYTAEEKIFAQRLMRYWANFARTGDPNEPRDPKAPQWPPYTAGAQQYVSLDLRPLEVRRGLRAQACAFWNRFLPKLLSATDTLDEAERQWKAEFHRWSSYMVHWKNQFDHYSKQDRCSDL
Regarding B1, in data set [2], the Km is 1.73 ± 0.0147 µM and the Vmax came to 131 µM/min.

Usually Km stands for the substrate concentration at which the rate is half of its maximum. The Vmax is the top rate of the reaction or transport when substrate is in excess.
